± gives the expanded uncertainty stated by the source.
Test: refractive index (Na D-line) (dimensionless)
Settings: 298.15 K; 100 kPa; Liquid; Standard Abbe refractometry

SMILES: CCO [ethanol]
- refractive index: 1.35947 ± 0.00033

SMILES: CO [methanol]
- refractive index: 1.32655 ± 0.00031

SMILES: CC(C)O [propan-2-ol]
- refractive index: 1.37503 ± 0.00033

SMILES: O [water]
- refractive index: 1.33251 ± 0.00031

Source: the NIST ThermoML archive (doi:10.1016/j.jct.2018.02.005)
